Data taken from PubChem BioAssay (NCI).
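How tested: cells in 96-well plates exposed to compound for 48 hours at five concentrations. TGI: total growth inhibition.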

How the values were obtained:
Test in all cases: NCI anticancer screen, dose series, 48 h
A498 renal = tested on: A498 renal
ACHN renal = tested on: ACHN renal
CAKI-1 renal = tested on: CAKI-1 renal
MALME-3M melanoma = tested on: MALME-3M melanoma
MOLT-4 leukemia = tested on: MOLT-4 leukemia
NCI-H460 lung = tested on: NCI-H460 lung
PC-3 prostate = tested on: PC-3 prostate
SF-295 CNS = tested on: SF-295 CNS
SK-MEL-5 melanoma = tested on: SK-MEL-5 melanoma
SK-OV-3 ovarian = tested on: SK-OV-3 ovarian
T-47D breast = tested on: T-47D breast
UACC-257 melanoma = tested on: UACC-257 melanoma
NCI/ADR-RES ovarian = tested on: NCI/ADR-RES ovarian

Row | Structure (SMILES) | TGI (A498 renal) [µM] | TGI (ACHN renal) [µM] | TGI (CAKI-1 renal) [µM] | TGI (MALME-3M melanoma) [µM] | TGI (MOLT-4 leukemia) [µM] | TGI (NCI-H460 lung) [µM] | TGI (PC-3 prostate) [µM] | TGI (SF-295 CNS) [µM] | TGI (SK-MEL-5 melanoma) [µM] | TGI (SK-OV-3 ovarian) [µM] | TGI (T-47D breast) [µM] | TGI (UACC-257 melanoma) [µM] | TGI (NCI/ADR-RES ovarian) [µM]
1 | O/N=C1/C2CC3CC1(c1ccccc1)CC(/C3=N/O)/C2=N\O (stereo not drawn) | > 100 | > 100 | > 100 | > 100 | > 100 | > 100 | > 100 | > 100 | > 100 | > 100 | > 100 | > 100 | 
2 | CC(=O)Nc1ccc(C(=O)N2N=C(C)/C(=C/c3cccc([N+](=O)[O-])c3)C2=O)cc1 |  | > 100 | > 100 | > 100 | > 100 | > 100 |  | > 100 | > 100 |  |  | > 100 | 
3 | CN(/N=N/c1nc[nH]c1C(N)=O)C1CCCCC1 | > 100 | > 100 |  | > 100 | > 100 | > 100 |  | > 100 | > 100 | > 100 |  | > 100 | 
4 | O=C(N/N=C/c1ccc(Cl)cc1)c1cc(I)cc(I)c1O | > 100 | > 100 | > 100 |  | > 100 |  | > 100 | > 100 | > 100 | > 100 | > 100 | > 100 | > 100
5 | Cc1nn(C(=O)c2ccncc2)c2c1C(c1cccc([N+](=O)[O-])c1)SC(N)=N2 (stereo not drawn) |  | > 10 | > 10 | > 10 | > 10 | > 10 | > 10 | > 10 | > 10 | > 10 | > 10 | > 10 | > 10
6 | C=CCC1(CC)C(=O)NC(=O)NC1=O |  | > 100 |  | > 100 | > 100 | > 100 |  |  |  | > 100 |  | > 100 | 
7 | Oc1ccc(Cl)cc1C1=N/C(=N\C/N=C2\N=C(c3cc(Cl)ccc3O)CC(c3ccccc3)N2)NC(c2ccccc2)C1 (stereo not drawn) | > 100 | > 100 | > 100 |  |  | > 100 | > 100 | > 100 | > 100 | > 100 |  | > 100 | > 100
8 | COc1cc(C(c2cccc3ccccc23)N2C(=O)CCC2C(=O)NCc2ccccc2)cc(OC)c1OC (stereo not drawn) | > 100 |  | > 100 | > 100 | > 100 | > 100 |  | > 100 | > 100 | > 100 | > 100 | > 100 | > 100
9 | CCN1CCCC(Nc2cc(C)nc(/N=C(/N)Nc3ccc(Cl)c(Cl)c3)n2)C1 (stereo not drawn) |  | 5.56 | 3.1 | 4.02 | 2.42 | 2.93 |  | 2.41 | 5.35 | 5.24 |  |  | 8.58
10 | COc1cccc(NC(=O)CC(=O)NNCC(=O)Nc2nnc(-c3ccc(N(CCC#N)S(=O)(=O)c4ccccc4)cc3)s2)c1 |  | > 100 | > 100 | > 100 | > 100 |  |  | > 100 | > 100 | > 100 |  |  | 
11 | CC(C)=Nn1cnc(C(=N)C#N)c1N |  | > 100 | > 100 | > 100 | > 100 | > 100 | > 100 | > 100 |  | > 100 |  | > 100 | > 100
12 | CC1C2CC(C/C2=N/O)C1(C)C (stereo not drawn) | > 100 | > 100 | > 100 | > 100 | > 100 | > 100 | > 100 | > 100 | > 100 | > 100 | > 100 | > 100 | 
13 | Cc1cc(S(=O)(=O)Nc2nc3ccccc3n2-c2ccccc2)c(S)cc1Cl |  | > 100 | > 100 | > 100 | > 100 | > 100 | > 100 | > 100 | > 100 |  | > 100 | > 100 | > 100
14 | CCOC(=O)c1c(NCc2ccccc2)n(-c2ccccc2)c(=S)n(-c2ccccc2)c1=O |  | > 100 |  | > 100 | > 100 | > 100 |  | > 100 | > 100 |  | > 100 | > 100 | 
15 | Cc1occ2c1C(=O)CC1C2[C@@H](O)CC2C(C)(C)CCC[C@]12C (stereo partly drawn) | > 100 | > 100 |  | > 100 | > 100 |  |  | > 100 | > 100 | > 100 |  | > 100 | 
16 | CCC(=O)NC(OCC1(CC)COC1)(C(F)(F)F)C(F)(F)F | > 100 | > 100 |  | > 100 | > 100 | > 100 |  |  |  | > 100 | > 100 | > 100 | 
17 | C#CCSc1nc(N)c2ncn(C3OC(COP(=O)(O)O)C(O)C3O)c2n1 (stereo not drawn) | > 239 | > 239 | > 239 | > 239 | > 239 | > 239 |  | > 239 | > 239 | > 239 |  | > 239 | 
18 | S=C(N/N=C\c1ccccn1)N(Cc1ccccn1)Cc1ccccn1 |  | 5.13 | 14.6 | 16.9 | 19.4 | > 44 | 32.9 | 16.3 | 16.8 | 17.9 | > 40.4 | 39.5 | 5.2
19 | COc1cc(/C=N\NC(=O)C[N+](C)(C)C)cc(OC)c1OC |  | > 10 | > 10 | > 10 | > 10 |  | > 10 | > 10 | > 10 | > 10 | > 10 | > 10 | > 10
20 | O=c1[nH]c2cc3cccnc3c(Cl)c2nc1CBr |  | 20.3 | 31.9 | 65.5 | > 100 | 39.7 | 37.4 | 54.1 | 35.6 | 65.5 | 28.3 | 54.9 | 53.3
21 | O=C1c2ccccc2-c2nc(-c3ccccc3)cc3c2c1nc1ccccc13 |  | 91.5 | 74.9 | 12.8 | 36.4 |  | 32.3 | 27.6 | 13.3 | 55.2 | > 100 | 30.6 | 47.1
22 | COc1cc(OC)cc(-n2c(N)c(-c3nc4ccccc4n3C)c3ccc([N+](=O)[O-])cc3c2=O)c1 | > 100 | > 100 | > 100 |  |  | > 100 | > 100 |  | > 100 |  | > 100 | > 100 | > 100
23 | O/N=C1\CCc2nonc2\C1=N/Nc1ccccc1 |  | > 100 | > 100 | > 100 | > 100 | > 100 | > 100 | > 100 | > 100 | > 100 | > 100 | > 100 | > 100
24 | C=CC(C)(C)c1cc([C@@H]2COc3cc(O)ccc3C2=O)c(O)c(O)c1OC |  | 31.4 | 27.4 | 93.6 | > 100 | > 100 | 34.7 | > 100 | 41.1 | 61 | 62.3 | > 100 | 64.3
25 | CC1=C[C@@H](C)C[C@]2(C)CC[C@H](O2)[C@]23CC[C@](C)(C[C@H](O2)[C@@H]2O[C@@](C)(CC2=O)[C@@H](O)[C@H]2CC[C@@]4(CCC[C@@H](O4)[C@H](C)C(=O)O[C@H]4C[C@H]([C@]5(O)OCC[C@H](C)[C@@H]5O)O[C@H]4C=C1)O2)O3 | 0.005 | > 5.25 | 0.00515 |  | > 10 | > 10 |  |  | 0.0212 |  | > 10 |  | > 10
26 | COC(=O)C1=C(C)N(NC(=O)c2ccccc2)C2(O)CCCC(=O)C12C (stereo not drawn) | > 100 | > 100 | > 100 | > 100 |  |  |  | > 100 | > 100 | > 100 |  | > 100 | 
27 | N#CC1(c2ccccc2)CCN(C2(c3ccccc3)CCCCC2)CC1 |  | > 100 | > 100 | > 100 | > 100 |  | > 100 | > 100 | > 100 | > 100 | > 100 | > 100 | > 100
28 | CN(C)Cc1cc(C(=O)/C=C/c2cccc(Cl)c2)cc(CN(C)C)c1O | 14.2 | 10.3 | 4.3 |  | 14.1 | 11.4 | 22.8 | 27 | 6.92 |  | 19.9 | 19.9 | > 100
29 | C[C@@H]1CC[C@@H](C)[C@](C)(CCc2ccoc2)C/C=C\C=C/1C(=O)O | > 50 | > 50 | > 50 | > 50 | > 50 | > 50 | > 50 | > 50 | > 50 | > 50 |  | > 50 | > 50
30 | O=c1[nH]cnc2sc(=S)c3c(c12)CCC3 |  | 33.6 | 49.4 | 98.2 | 41.2 | > 100 | > 100 | > 100 | 42.1 | > 100 | > 100 | 94 | > 100
